Non-standard residues stand in square brackets, D forms with d. Residues, ends and D or L forms follow the SMILES beside them. *: point of attachment. Nle = CCCC[C@H](N)C(=O)O; Cbz = O=C(OCc1ccccc1)*; CH2F = FC*
What was measured:
HT-1080 cells [1] = assay: Inhibition of erastin (10 μM)-induced death in HT-1080 cells (Alamar Blue); type: cell-based, human; conditions: for protection when added after erastin: added up to 6 hours after erastin
Description: Cell viability was typically assessed in 384-well format by Alamar Blue (Invitrogen) fluorescence (ex/em 530/590) measured on a Victor3 platereader (Perkin Elmer, Waltham, Mass.). In some experiments, Trypan Blue dye exclusion counting was performed using an automated cell counter (ViCell, Beckman-Coulter Inc., Brea, Calif.). Cell viability in test conditions is reported as a percentage relative to the negative control treatment.
The ability of various compounds disclosed herein to inhibit death in erastin (10 μM)-treated HT-1080 cells were tested. Cell viability was assessed by Alamar Blue. EC50 values (nM) were computed from dose response curves.
HT-1080 cells are cultured in DMEM containing 10% fetal bovine serum, 1% supplemented non-essential amino acids and 1% pen/strep mixture (Gibco) and maintained in a humidified environment at 37° C. with 5% CO2 in a tissue culture incubator. 1,000 HT-1080 cells are seeded per well in duplicate 384-well plates (Corning) using a BioMek FX liquid handling robot (Beckman Coulter). The next day, the medium is replaced with 36 μL of medium containing 10 μM erastin with 4 μL of medium containing a dilution series (previously prepared) of DMSO, Fer-1 (positive control) or Fer-1 analogs. 24 hours later, 10 μL Alamar Blue (Invitrogen) cell viability solution is added to the growth media to a final concentration of 10%. Cells are incubated a further 6 hours and then the Alamar Blue fluorescence intensity recorded using a Victor 3 platereader (PerkinElmer)(ex/em 530/590). All experiments are performed at least twice and the background (no cells)-subtracted Alamar Blue values for each combination are averaged between replicates.

HT-1080 cells [2] = assay: Cytosolic and lipid ROS production (H2DCFDA, C11-BODIPY flow cytometry) in HT-1080 cells; type: cell-based, human; conditions: erastin (10 μM)
Description: The day before the experiment, 200,000 cells/well were seeded in 6-well dishes (Corning Inc., Corning, N.Y.). The day of the experiment, cells were treated with test compounds for the indicated times, then harvested by trypsinization, resuspended in 500 μL Hanks Balanced Salt Solution (HBSS, Gibco, Invitrogen Corp., Carlsbad, Calif.) containing either H2DCFDA (25 μM), C11-BODIPY(581/591) (2 μM) or MitoSOX (5 μM) (all from Molecular Probes, Invitrogen) and incubated for 10 minutes at 37° C. in a tissue culture incubator. Cells were then resuspended in 500 μL of fresh HBSS, strained through a […] cell strainer (BD Falcon, BD Biosciences, San Jose, Calif.), and analyzed using a flow cytometer (FACSCalibur or Accuri C6, BD Biosciences), which was equipped with 488-nm laser for excitation. Data was collected from the FL1 (H2DCFDA, C11-BODIPY) or FL2 channel (MitoSOX). A minimum of 10,000 cells were analyzed per condition.

[3] = test system: HT-1080, BJeLR and Calu-1 cells; assay: Modulatory profiling of cell death inhibitors against erastin; type: cell-based, human; conditions: erastin 10 μM, 24 hours; 10-point, 4-fold dilution series
Description: The day before the experiment, cells were seeded in black, 384-well clear bottom plates (Corning) at a density of 1,000 cells/well using a Beckman Biomek FX Workstation. All compounds (except 3-methyladenine and chloroquine, which were diluted in water) were diluted in DMSO at 250 times the final highest test concentration, and aliquoted across a 384-well plate (Greiner, Monroe, N.C.). A ten-point, 4-fold dilution series of each inhibitor in DMSO was made using a multichannel pipette. Replicates of this mother plate were stored at −20° C. […] Medium was removed from cells and replaced with 36 μL medium containing DMSO (0.1%) or erastin (10 μM final concentration). Using the Biomek FX, 4 μL were then transferred from each inhibitor daughter plate into the DMSO-containing or erastin-containing assay plates. For 3-methyladenine and chloroquine, inhibitors were prepared fresh in media at 10-fold the final concentration in the presence of DMSO or 10 μM erastin. These solutions were manually pipetted onto cells in 384-well format. Assay plates were incubated at 37° C. for 24 hours. Viability was assessed using Alamar Blue.
The modulatory effect (Me) for drug-drug interactions was computed as follows. First, plate-based background correction was performed using Alamar Blue values from empty (cell-free) wells included on each plate. Next, within each experiment, 100% viability is determined as the average Alamar Blue score for cells treated with modulator=DMSO and lethal=DMSO, and all Alamar Blue values were scaled from 0 to 1 with the DMSO×DMSO condition=1. The individual effects of each modulator and lethal (e.g. in the presence of DMSO) at all tested doses were then ascertained. […] Next, BExp was compared to the actual observed viability. […] By default, Me in DMSO-treated cells is equal to 0. […] Me values for each inhibitor-lethal drug combination were hierarchically clustered and plotted as a heatmap using the heatmaps.2 function of the gplots library in R.

[4] = Metabolic stability in mouse liver microsomes; type: in vitro ADME; conditions: Compound Conc = 0.5 μM
Description: Test compounds (0.5 μM) were incubated at 37° C. for up to 45 minutes in 50 mM of potassium phosphate buffer (pH 7.4) containing mouse liver microsomal protein (0.5 mg/mL) and an NADPH generating system (0.34 mg/mL β-nicotinamide adenine dinucleotide phosphate (NADP), 1.56 mg/mL glucose-6-phosphate, 1.2 units/mL glucose-6-phosphate dehydrogenase). At 0, 5, 15, 30, and 45 minute intervals, an aliquot was taken and quenched with acetonitrile (ACN) containing internal standard. No-cofactor controls at 45 minutes were prepared. Following completion of the experiment, the samples were analyzed by LC-MS/MS.
The half-life (t1/2) was calculated using the following equation: t1/2=0.693/k Where, k is the elimination rate constant of test compounds obtained by fitting the data to the equation: C=initial×exp(−k×t) Intrinsic clearance (Clint) is calculated as liver clearance from the half-life using the following equation: […]
0.5 mg protein/mL incubation
Ethoxycoumarin was used as a control.

[5] = In vitro stability study in mouse plasma; type: in vitro ADME
Description: The assay was conducted by incubating 1 μM of test compounds with Mouse Plasma (Strain […]) for a series of incubation times (0, 15, 30, 60, 120 minutes) at various temperatures (wet ice, room temperature, or 37° C.) with 5% CO2 and shaking (130 rpm). At each time point, the samples were quenched with 200 μL of stop solution containing an internal standard and kept on ice. The samples were analysed by LC-MS/MS.

With `Cc1c(C)c2c(c(C)c1O)CCC(C)(C(=O)O)O2` (stereo not shown) [trolox, 6-hydroxy-2,5,7,8-tetramethylchroman-2-carboxylic acid] the “protection when added after erastin” value (HT-1080 cells [1]) was “substantial protection from death”, the “effect of inhibitor on erastin-induced ROS accumulation” value (HT-1080 cells [2]) was “prevented the accumulation of H2DCFDA-sensitive ROS” and the “modulation of erastin-induced death” value [3] was “rescued from erastin-induced death”.
In the case of `CO/C1=C\C(C)=C\[C@@H](C)[C@@H](O)[C@@H](C)C/C(C)=C/C=C/[C@H](OC)[C@@H]([C@@H](C)[C@@H](O)[C@H](C)[C@@]2(O)C[C@@H](O)[C@H](C)[C@@H](C(C)C)O2)OC1=O` [bafilomycin A1], the “modulation of erastin-induced death” value [3] is reported as “not consistently modulated”.
With `CCN(CC)CCCC(C)Nc1ccnc2cc(Cl)ccc12` (stereo not shown) [chloroquine] the “modulation of erastin-induced death” value [3] was “not consistently modulated”.
With `N#CC(=C(N)Sc1ccccc1N)C(C#N)=C(N)Sc1ccccc1N` [Compound U0126, 1,4-diamino-2,3-dicyano-1,4-bis (2-aminophenylthio)butadiene] the “protection when added after erastin” value (HT-1080 cells [1]) was “substantial protection from death”, the “effect of inhibitor on erastin-induced ROS accumulation” value (HT-1080 cells [2]) was “prevented the accumulation of H2DCFDA-sensitive ROS” and the “modulation of erastin-induced death” value [3] was “rescued from erastin-induced death”.
With `Cn1cnc(N)c2ncnc1-2` [3-methyladenine] the “modulation of erastin-induced death” value [3] was “not consistently modulated”.
For `C[C@@H]1C[C@@H]([C@H](O)CC2CC(=O)NC(=O)C2)C(=O)[C@@H](C)C1` [CHX, cycloheximide], the “modulation of erastin-induced death” value [3] was “to a weaker extent”.
For `CCCC[C@@H](C=O)NC(=O)[C@H](CC(C)C)NC(=O)[C@H](CC(C)C)NC(C)=O` [ALLN, N-Acetyl-Leu-Leu-Nle-CHO] (Ac-Leu-Leu-[Nle]-aldehyde), the “modulation of erastin-induced death” value [3] was “not consistently modulated”.
In the case of `CCOC(=O)[C@H]1O[C@@H]1C(=O)N[C@@H](CC(C)C)C(=O)NCCC(C)C` (relative stereo) [Compound E64d, (2S,3S)-trans-epoxysuccinyl-L-leucylamido-3-methylbutane ethyl ester], the “modulation of erastin-induced death” value [3] is reported as “not consistently modulated”.
For `CCOC(=O)c1ccc(NC23CC4CC(CC(C4)C2)C3)c(NCc2cncnc2)c1` [SRS16-41, ethyl 4-(adamantylamino)-3-(pyrimidin-5-ylmethylamino)benzoate], the EC50 (HT-1080 cells [1]; Homo sapiens, HT-1080, Table 1 (Example 10), erastin (10 μM)-treated HT-1080 cells, read-out: EC50) was 16 nM, the “Elimination rate constant (k)” value ([4]; Mouse) was 0.3149 and the “Intrinsic Clearance (CLint) (mL/min/g liver)” value ([4]; Mouse) was 35.9 mL/min/g liver. For the same compound, the half-life at 0.5 μM ([4]; mouse, liver microsomes, pH 7.4, Mouse, read-out: Half life (t½)) was 2 min, the “Peak Area Ratio” value ([5]; Room Temperature, 0 min) was 5.8556 and the “Percent Remaining” value ([5]; Room Temperature, 0 min) was 100.0%. For the same compound, the “Peak Area Ratio” value ([5]; Room Temperature, 15 min) was 0.6709, the “Percent Remaining” value ([5]; Room Temperature, 15 min) was 11.5% and the “Peak Area Ratio” value ([5]; Room Temperature, 30 min) was 0.0885. For the same compound, the “Percent Remaining” value ([5]; Room Temperature, 30 min) was 1.5%, the “Peak Area Ratio” value ([5]; Room Temperature, 60 min) was 0.0206 and the “Percent Remaining” value ([5]; Room Temperature, 60 min) was 0.4%. The “Peak Area Ratio” value ([5]; Room Temperature, 120 min) was 0.0159, the “Percent Remaining” value ([5]; Room Temperature, 120 min) was 0.3% and the “Peak Area Ratio” value ([5]; Wet Ice, 0 min) was 6.9233. The “Percent Remaining” value ([5]; Wet Ice, 0 min) was 100.0%, the “Peak Area Ratio” value ([5]; Wet Ice, 15 min) was 5.7631 and the “Percent Remaining” value ([5]; Wet Ice, 15 min) was 83.2%. The “Peak Area Ratio” value ([5]; Wet Ice, 30 min) was 4.7595, the “Percent Remaining” value ([5]; Wet Ice, 30 min) was 68.7% and the “Peak Area Ratio” value ([5]; Wet Ice, 60 min) was 3.4547. For the same compound, the “Percent Remaining” value ([5]; Wet Ice, 60 min) was 49.9%, the “Peak Area Ratio” value ([5]; Wet Ice, 120 min) was 1.9564 and the “Percent Remaining” value ([5]; Wet Ice, 120 min) was 28.3%.
With `COC(=O)CC(NC(=O)C(C)NC(=O)C(NC(=O)OCc1ccccc1)C(C)C)C(=O)CF` (stereo not drawn) [z-VAD-fmk, carbobenzyloxy-valyl-alanyl-aspartyl-[O-methyl]-fluoromethylketone] (Cbz-Val-Ala-Asp(OMe)-CH2F; configuration not given here) the “modulation of erastin-induced death” value [3] was “not consistently modulated”.
